Data reported in ChEMBL document CHEMBL5465560, “Selectivity Literature for EUbOPEN Chemogenomic Library” (2024).
Blank lines part the entries; values can stand above or below the molecule they belong to.

Tests used:
[1] = molecular target: Angiopoietin-1 receptor (Homo sapiens) (UniProt Q02763); test: Selectivity interaction (Millipore kinase profiler) EUB0000124b TEK; conditions: at 10 µM
[2] = molecular target: Serine/threonine-protein kinase Nek4 (Homo sapiens) (UniProt P51957); test: Selectivity interaction (Ambit KINOMEscan and KiNATiv profiling in Jurkat cells) EUB0000090b NEK4; assay type: cell-based; conditions: at 1 µM
[3] = molecular target: T1, Beta-adrenergic receptor kinase 1 (Homo sapiens) (UniProt P25098); test: Selectivity interaction (ActivX KiNativ screen (kinase selectivity in THP-1 cell lysates)) EUB0000639a ADRBK1; assay type: subcellular; conditions: lysate
T1 sequence (whole entry): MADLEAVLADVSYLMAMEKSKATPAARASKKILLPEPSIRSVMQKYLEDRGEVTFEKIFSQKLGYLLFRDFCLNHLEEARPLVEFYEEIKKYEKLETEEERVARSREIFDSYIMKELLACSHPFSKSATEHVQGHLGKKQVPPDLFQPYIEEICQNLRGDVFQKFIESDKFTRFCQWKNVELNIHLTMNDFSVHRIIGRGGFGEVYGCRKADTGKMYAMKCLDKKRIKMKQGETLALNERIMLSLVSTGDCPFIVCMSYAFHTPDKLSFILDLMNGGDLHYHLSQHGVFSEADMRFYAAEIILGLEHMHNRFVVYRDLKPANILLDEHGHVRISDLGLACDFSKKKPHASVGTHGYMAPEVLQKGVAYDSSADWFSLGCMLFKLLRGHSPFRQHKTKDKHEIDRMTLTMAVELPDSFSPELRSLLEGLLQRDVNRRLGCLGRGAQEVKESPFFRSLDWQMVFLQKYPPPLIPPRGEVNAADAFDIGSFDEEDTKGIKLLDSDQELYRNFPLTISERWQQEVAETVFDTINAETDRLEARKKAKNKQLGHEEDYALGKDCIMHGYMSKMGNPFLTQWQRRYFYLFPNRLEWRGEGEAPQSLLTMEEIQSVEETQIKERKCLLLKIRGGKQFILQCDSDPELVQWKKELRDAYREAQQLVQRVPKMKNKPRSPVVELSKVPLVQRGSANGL

[4] = molecular target: Dual specificity protein kinase CLK1 (Homo sapiens, UniProt P49759); test: Selectivity interaction (Kinase panel (Invitrogen)) EUB0000639a CLK1; conditions: at 200 nM
[5] = molecular target: T2, Serine/threonine-protein kinase ICK (Homo sapiens) (UniProt Q9UPZ9); test: Selectivity interaction (KinomeScan (DiscoverX)) EUB0000229b ICK; conditions: at 10 µM
T2 sequence (whole entry): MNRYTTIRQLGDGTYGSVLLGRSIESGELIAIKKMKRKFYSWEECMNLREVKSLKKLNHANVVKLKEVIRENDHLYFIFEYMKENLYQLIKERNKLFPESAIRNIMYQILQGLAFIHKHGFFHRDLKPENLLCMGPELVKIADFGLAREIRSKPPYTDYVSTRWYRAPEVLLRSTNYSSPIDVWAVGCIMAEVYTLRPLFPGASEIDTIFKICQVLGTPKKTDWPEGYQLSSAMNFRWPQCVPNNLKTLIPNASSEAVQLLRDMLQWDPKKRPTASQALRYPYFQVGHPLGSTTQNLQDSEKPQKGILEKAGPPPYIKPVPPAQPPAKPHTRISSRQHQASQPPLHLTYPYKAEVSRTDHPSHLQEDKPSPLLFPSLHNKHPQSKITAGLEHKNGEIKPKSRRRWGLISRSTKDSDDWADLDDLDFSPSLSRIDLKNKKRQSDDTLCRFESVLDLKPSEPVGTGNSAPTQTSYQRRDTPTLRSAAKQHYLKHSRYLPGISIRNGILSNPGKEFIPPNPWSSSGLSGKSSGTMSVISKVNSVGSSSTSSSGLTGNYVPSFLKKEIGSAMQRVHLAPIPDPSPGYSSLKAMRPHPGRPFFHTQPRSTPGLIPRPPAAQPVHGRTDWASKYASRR

[6] = molecular target: Wee1-like protein kinase (Homo sapiens) (UniProt P30291); test: Selectivity interaction (KinomeScan (DiscoverX)) EUB0001079a WEE1; conditions: at 1 µM
[7] = molecular target: Serine/threonine-protein kinase 25 (Homo sapiens) (UniProt O00506); test: Selectivity interaction (KinomeScan (DiscoverX)) EUB0001079a STK25; conditions: at 1 µM
[8] = molecular target: Dual specificity tyrosine-phosphorylation-regulated kinase 1A (Homo sapiens, UniProt Q13627); test: Selectivity interaction (KinomeScan (DiscoverX)) EUB0000655a DYRK1A; conditions: at 10 µM
[9] = molecular target: Transient receptor potential cation channel subfamily M member 6 (Homo sapiens) (UniProt Q9BX84); test: Selectivity interaction (KinomeScan (DiscoverX)) EUB0000655a TRPM6; conditions: at 10 µM
[10] = molecular target: Dual specificity protein kinase CLK4 (Homo sapiens, UniProt Q9HAZ1); test: Selectivity interaction (KinomeScan (DiscoverX)) EUB0000666a CLK4; conditions: at 10 µM
[11] = molecular target: T3, Mitogen-activated protein kinase kinase kinase 13 (Homo sapiens) (UniProt O43283); test: Selectivity interaction (KinomeScan (DiscoverX)) EUB0000666a MAP3K13; conditions: at 10 µM
T3 sequence (whole entry): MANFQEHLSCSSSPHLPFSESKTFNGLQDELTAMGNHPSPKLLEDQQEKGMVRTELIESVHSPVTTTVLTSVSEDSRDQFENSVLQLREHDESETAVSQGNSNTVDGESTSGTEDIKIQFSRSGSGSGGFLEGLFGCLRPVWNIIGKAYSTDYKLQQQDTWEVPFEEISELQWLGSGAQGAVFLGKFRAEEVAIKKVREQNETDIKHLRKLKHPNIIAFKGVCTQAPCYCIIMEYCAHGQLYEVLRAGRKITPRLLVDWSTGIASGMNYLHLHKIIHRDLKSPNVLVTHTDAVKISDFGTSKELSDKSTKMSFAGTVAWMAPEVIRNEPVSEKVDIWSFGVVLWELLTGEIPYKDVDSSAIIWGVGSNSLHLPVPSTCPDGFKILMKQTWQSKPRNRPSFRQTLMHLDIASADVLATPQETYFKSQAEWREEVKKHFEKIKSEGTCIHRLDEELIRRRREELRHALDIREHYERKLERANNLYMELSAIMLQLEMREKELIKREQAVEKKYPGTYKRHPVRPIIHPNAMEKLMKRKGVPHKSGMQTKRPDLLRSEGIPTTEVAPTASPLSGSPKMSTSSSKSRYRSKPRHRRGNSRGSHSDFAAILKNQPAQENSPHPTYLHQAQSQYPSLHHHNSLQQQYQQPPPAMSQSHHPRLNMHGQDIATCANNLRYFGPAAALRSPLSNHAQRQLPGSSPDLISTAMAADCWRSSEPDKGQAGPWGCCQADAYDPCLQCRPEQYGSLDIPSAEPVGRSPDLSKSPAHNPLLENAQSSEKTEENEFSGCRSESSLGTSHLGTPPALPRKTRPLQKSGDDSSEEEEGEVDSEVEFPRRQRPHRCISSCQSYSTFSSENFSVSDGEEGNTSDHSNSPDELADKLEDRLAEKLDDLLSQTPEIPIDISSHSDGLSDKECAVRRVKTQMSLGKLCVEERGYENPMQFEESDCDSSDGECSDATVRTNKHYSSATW

Chain of Angiopoietin-1 receptor (Homo sapiens) (Q02763 whole entry): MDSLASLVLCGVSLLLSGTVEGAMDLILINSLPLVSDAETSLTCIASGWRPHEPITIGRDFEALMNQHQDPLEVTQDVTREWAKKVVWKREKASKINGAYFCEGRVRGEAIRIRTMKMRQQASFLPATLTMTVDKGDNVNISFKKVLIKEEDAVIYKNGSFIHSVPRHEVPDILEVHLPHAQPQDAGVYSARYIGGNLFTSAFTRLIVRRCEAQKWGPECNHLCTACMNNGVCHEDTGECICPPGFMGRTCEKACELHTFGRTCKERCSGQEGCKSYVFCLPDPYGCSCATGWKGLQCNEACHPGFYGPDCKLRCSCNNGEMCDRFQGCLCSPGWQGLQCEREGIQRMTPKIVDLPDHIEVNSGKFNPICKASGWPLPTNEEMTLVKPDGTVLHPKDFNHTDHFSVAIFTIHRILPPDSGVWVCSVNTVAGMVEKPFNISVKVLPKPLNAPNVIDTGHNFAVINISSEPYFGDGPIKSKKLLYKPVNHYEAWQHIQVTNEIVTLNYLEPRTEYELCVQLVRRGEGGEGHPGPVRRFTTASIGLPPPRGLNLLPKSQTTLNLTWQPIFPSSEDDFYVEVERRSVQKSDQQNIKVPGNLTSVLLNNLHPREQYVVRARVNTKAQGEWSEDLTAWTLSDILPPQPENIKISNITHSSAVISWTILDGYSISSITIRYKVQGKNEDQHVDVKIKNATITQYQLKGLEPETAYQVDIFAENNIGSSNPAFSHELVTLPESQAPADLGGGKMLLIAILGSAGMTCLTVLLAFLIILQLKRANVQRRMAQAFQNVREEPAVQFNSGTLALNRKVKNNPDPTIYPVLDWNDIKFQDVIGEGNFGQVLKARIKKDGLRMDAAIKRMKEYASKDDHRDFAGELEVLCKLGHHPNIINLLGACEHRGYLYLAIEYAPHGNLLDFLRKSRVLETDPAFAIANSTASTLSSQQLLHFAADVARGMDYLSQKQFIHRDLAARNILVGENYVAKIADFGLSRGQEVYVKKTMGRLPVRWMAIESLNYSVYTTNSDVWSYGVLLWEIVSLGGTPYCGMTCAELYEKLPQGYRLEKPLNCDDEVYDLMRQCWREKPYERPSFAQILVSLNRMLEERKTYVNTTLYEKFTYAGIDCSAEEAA
Chain of Transient receptor potential cation channel subfamily M member 6 (Homo sapiens) (Q9BX84 whole entry): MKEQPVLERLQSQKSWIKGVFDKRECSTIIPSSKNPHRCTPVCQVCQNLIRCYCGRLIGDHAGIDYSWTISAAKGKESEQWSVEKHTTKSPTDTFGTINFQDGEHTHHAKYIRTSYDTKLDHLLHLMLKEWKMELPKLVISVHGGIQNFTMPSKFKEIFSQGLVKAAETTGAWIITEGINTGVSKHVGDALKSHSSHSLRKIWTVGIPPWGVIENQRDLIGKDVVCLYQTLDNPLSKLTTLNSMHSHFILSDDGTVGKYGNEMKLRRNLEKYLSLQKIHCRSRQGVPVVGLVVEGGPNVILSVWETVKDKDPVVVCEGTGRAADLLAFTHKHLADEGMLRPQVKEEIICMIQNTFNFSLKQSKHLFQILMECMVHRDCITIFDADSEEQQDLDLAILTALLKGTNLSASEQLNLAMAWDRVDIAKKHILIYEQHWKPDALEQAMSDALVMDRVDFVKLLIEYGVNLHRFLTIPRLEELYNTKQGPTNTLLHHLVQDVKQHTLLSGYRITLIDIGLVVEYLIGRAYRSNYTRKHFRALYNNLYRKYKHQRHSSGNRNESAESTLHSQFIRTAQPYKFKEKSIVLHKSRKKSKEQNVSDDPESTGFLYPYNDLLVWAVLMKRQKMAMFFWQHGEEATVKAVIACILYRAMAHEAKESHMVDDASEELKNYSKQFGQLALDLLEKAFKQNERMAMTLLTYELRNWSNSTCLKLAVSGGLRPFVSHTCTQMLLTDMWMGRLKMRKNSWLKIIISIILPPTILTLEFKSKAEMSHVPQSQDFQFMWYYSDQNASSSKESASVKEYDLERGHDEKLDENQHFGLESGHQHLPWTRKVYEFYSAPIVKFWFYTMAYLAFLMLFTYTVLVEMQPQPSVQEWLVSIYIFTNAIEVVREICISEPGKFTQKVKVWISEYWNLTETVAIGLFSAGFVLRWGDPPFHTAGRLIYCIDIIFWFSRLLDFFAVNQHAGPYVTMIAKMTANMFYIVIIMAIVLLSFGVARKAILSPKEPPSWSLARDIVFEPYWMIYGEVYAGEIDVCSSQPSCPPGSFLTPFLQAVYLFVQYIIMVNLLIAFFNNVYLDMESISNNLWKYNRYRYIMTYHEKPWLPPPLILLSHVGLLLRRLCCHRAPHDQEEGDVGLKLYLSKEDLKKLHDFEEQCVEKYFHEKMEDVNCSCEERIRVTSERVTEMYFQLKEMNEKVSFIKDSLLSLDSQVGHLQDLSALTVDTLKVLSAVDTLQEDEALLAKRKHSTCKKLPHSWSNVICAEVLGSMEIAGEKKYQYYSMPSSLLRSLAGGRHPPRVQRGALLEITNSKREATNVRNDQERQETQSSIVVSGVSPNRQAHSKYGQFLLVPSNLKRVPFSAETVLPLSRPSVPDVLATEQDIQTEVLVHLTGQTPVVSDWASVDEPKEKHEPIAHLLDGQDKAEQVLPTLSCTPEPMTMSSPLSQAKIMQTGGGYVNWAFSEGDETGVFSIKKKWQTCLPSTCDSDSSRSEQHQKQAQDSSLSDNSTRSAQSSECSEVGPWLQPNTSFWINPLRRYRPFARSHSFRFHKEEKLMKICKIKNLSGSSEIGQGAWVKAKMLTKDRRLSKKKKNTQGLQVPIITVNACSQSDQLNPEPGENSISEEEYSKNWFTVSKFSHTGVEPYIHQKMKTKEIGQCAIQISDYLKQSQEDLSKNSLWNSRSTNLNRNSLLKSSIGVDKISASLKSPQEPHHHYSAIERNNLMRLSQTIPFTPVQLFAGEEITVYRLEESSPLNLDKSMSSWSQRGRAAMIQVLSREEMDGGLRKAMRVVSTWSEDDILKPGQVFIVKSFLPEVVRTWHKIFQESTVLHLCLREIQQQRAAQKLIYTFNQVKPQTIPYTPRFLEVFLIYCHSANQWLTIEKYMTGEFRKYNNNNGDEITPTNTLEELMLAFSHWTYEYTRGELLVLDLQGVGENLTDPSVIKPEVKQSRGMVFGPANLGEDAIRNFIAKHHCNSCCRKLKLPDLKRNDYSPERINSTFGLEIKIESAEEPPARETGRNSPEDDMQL
Chain of Serine/threonine-protein kinase 25 (Homo sapiens) (O00506 whole entry, looked up): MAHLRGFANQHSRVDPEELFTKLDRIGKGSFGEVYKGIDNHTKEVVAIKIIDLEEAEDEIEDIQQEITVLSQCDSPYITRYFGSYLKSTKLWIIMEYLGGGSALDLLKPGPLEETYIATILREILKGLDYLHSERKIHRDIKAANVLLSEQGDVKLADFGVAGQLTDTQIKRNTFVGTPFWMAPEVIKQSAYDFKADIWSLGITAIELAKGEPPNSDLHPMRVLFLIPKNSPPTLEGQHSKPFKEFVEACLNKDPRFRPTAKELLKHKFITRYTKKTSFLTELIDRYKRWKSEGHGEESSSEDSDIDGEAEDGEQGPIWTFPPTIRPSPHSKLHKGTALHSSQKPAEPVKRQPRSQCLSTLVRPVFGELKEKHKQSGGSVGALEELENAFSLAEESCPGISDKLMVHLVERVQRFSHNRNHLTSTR
Chain of Serine/threonine-protein kinase Nek4 (Homo sapiens) (P51957 whole entry, looked up): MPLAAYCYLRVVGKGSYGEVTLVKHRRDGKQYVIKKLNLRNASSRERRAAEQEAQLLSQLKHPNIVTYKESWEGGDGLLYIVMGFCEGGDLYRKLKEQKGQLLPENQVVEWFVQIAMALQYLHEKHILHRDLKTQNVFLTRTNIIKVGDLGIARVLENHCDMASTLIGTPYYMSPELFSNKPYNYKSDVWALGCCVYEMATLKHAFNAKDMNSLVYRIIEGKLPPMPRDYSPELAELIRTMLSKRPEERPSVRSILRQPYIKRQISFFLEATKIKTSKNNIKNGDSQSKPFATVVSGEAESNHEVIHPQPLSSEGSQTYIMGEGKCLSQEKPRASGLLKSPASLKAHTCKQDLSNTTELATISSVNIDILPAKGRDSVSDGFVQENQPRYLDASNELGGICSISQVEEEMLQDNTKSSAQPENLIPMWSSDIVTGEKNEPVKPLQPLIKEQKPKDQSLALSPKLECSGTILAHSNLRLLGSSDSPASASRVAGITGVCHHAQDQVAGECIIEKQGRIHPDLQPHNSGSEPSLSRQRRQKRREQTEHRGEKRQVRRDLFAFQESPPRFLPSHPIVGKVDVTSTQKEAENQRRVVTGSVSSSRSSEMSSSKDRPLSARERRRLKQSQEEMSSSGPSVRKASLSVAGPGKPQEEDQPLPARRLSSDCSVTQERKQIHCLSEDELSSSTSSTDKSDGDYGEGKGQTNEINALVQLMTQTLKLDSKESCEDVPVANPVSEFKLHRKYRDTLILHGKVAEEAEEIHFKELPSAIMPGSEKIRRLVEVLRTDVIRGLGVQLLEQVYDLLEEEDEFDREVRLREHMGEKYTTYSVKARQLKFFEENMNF
Chain of Dual specificity protein kinase CLK1 (P49759 whole entry, looked up): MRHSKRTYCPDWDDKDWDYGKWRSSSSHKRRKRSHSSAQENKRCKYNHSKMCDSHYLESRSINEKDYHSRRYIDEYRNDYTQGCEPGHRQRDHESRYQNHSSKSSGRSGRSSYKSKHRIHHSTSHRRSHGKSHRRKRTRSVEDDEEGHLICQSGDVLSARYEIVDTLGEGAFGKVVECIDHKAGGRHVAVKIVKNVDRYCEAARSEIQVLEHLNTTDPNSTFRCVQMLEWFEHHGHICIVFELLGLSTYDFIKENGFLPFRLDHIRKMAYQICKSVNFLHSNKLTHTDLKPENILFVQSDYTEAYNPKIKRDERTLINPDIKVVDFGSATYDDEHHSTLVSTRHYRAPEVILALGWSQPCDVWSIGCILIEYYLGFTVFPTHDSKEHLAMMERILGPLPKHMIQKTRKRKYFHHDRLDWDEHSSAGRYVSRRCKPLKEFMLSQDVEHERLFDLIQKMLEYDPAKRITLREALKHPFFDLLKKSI

% of control [1]: 103%
SMILES: CC(=O)Nc1cccc(-n2c(=O)n(C3CC3)c(=O)c3c(Nc4ccc(I)cc4F)n(C)c(=O)c(C)c32)c1

SMILES: CN(C)C/C=C/C(=O)Nc1ccc(C(=O)N2CCCC(Nc3ncc(Cl)c(-c4c[nH]c5ccccc45)n3)C2)cc1 (stereo not given)
% of control [2]: 100%

% of inhibition ([3]; at 0.01 µM): 5.6%
% of inhibition ([3]; at 0.04 µM): 8%
% of inhibition ([3]; at 0.2 µM): 9.7%
% of inhibition ([3]; at 1 µM): 14.3%
% of inhibition ([3]; at 5 µM): 12.1%
% of inhibition [4]: 34.5%
SMILES: CC[C@@H]1[C@H](F)C(=O)N[C@@H]1COc1nccc2cc(C(N)=O)c(OC)cc12 [ZIMLOVISERTIB]

SMILES: COc1cc(N(C)c2ccnc3ccc(C(F)(F)F)cc23)cc(OC)c1OC
% binding [5]: 73%

SMILES: Nc1cnc(N2CCc3cc(S(=O)(=O)Nc4c(F)cc(Cl)cc4F)cc(N4CCCC4=O)c32)nc1 [TP-020n]
% of control [6]: 72%
% of control [7]: 88%

SMILES: CN(C)CCOc1ccc(-c2nc(-c3ccncc3)c(-c3ccc4c(c3)CC/C4=N\O)[nH]2)cc1
% of control [8]: 94%
% of control [9]: 100%

SMILES: O=C(NOC[C@H](O)CO)c1ccc(F)c(F)c1Nc1ccc(I)cc1F
% of control [10]: 89%
% of control [11]: 86%
